ChEMBL document CHEMBL4507302, “Data for DCP probe TP-020” (2021)

Experiments:
[1] = target: Microtubule-associated serine/threonine-protein kinase 1 (Homo sapiens) (UniProt Q9Y2H9); conditions: Compound concentration 1000.0 nM
[2] = target: Homeodomain-interacting protein kinase 4 (Homo sapiens) (UniProt Q8NE63); conditions: Compound concentration 1000.0 nM
[3] = target: Phosphatidylinositol 4-phosphate 5-kinase type-1 alpha (Homo sapiens) (UniProt Q99755); conditions: Compound concentration 1000.0 nM
[4] = target: Ribosomal protein S6 kinase alpha-1 (Homo sapiens) (UniProt Q15418); conditions: Compound concentration 1000.0 nM
[5] = target: TRAF2 and NCK-interacting protein kinase (Homo sapiens) (UniProt Q9UKE5); conditions: Compound concentration 1000.0 nM
[6] = target: TGF-beta receptor type-2 (Homo sapiens) (UniProt P37173); conditions: Compound concentration 1000.0 nM
[7] = system: Epidermal growth factor receptor (Homo sapiens), P00533 [T790M]; conditions: Compound concentration 1000.0 nM
[8] = target: Mitogen-activated protein kinase kinase kinase kinase 3 (Homo sapiens) (UniProt Q8IVH8); conditions: Compound concentration 1000.0 nM
[9] = target: STE20/SPS1-related proline-alanine-rich protein kinase (Homo sapiens) (UniProt Q9UEW8); conditions: Compound concentration 1000.0 nM
[10] = target: Serine/threonine-protein kinase SIK2 (Homo sapiens) (UniProt Q9H0K1); conditions: Compound concentration 1000.0 nM
[11] = target: Serine/threonine-protein kinase PLK2 (Homo sapiens) (UniProt Q9NYY3); conditions: Compound concentration 1000.0 nM
[12] = target: D(4) dopamine receptor (Homo sapiens) (UniProt P21917); conditions: Compound concentration 10.0 uM
[13] = target: Death-associated protein kinase 2 (Homo sapiens) (UniProt Q9UIK4); conditions: Compound concentration 1000.0 nM
[14] = target: Mu-type opioid receptor (Homo sapiens) (UniProt P35372); conditions: Compound concentration 10.0 uM
[15] = target: Cyclin-dependent kinase 8 (Homo sapiens) (UniProt P49336); conditions: Compound concentration 1000.0 nM
[16] = system: Epidermal growth factor receptor (Homo sapiens), P00533 [L858R]; conditions: Compound concentration 1000.0 nM
[17] = target: Receptor tyrosine-protein kinase erbB-3 (Homo sapiens) (UniProt P21860); conditions: Compound concentration 1000.0 nM
[18] = target: Kappa-type opioid receptor (Homo sapiens) (UniProt P41145); conditions: Compound concentration 10.0 uM
[19] = target: Insulin receptor-related protein (Homo sapiens) (UniProt P14616); conditions: Compound concentration 1000.0 nM
Chain of Insulin receptor-related protein (Homo sapiens) (P14616 27-742 limits assumed): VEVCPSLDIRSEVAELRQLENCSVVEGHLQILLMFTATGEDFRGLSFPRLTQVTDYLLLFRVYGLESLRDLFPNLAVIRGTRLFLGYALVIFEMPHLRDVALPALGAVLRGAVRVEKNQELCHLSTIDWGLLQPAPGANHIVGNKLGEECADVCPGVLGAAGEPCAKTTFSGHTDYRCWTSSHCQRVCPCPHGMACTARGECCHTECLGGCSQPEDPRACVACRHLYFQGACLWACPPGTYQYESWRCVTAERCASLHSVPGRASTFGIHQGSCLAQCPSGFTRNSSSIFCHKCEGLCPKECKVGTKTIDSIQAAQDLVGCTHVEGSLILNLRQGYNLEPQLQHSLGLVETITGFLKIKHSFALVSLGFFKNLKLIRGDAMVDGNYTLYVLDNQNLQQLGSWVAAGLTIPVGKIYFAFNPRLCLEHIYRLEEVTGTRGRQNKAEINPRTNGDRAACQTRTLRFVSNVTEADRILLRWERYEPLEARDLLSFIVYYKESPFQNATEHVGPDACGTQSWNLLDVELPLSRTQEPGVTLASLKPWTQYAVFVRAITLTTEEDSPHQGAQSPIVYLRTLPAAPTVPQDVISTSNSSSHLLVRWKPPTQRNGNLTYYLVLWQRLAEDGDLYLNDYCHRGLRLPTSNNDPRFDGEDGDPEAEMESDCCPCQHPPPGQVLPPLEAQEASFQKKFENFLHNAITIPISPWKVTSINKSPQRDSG
Chain of Insulin receptor-related protein (Homo sapiens) (P14616 747-1297 limits assumed): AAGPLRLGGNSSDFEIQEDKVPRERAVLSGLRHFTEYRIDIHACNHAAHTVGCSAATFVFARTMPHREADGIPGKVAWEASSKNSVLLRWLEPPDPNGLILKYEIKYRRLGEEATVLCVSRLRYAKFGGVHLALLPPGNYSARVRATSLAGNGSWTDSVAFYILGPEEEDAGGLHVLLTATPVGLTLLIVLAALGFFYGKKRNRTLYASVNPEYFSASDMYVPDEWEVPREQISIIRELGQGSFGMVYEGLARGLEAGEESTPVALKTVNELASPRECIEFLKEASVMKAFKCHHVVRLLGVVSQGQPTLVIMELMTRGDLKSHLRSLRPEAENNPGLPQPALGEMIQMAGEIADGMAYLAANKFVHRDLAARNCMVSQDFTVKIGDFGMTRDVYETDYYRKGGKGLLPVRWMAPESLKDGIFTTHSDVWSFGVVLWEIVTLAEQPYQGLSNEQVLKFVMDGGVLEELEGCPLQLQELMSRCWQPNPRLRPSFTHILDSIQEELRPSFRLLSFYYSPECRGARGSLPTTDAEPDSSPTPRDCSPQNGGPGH

[20] = system: Phosphatidylinositol 4,5-bisphosphate 3-kinase catalytic subunit alpha isoform (Homo sapiens), P42336 [E542K]; conditions: Compound concentration 1000.0 nM
[21] = target: Death-associated protein kinase 3 (Homo sapiens) (UniProt O43293); conditions: Compound concentration 1000.0 nM
[22] = target: Casein kinase I isoform epsilon (Homo sapiens) (UniProt P49674); conditions: Compound concentration 1000.0 nM
[23] = target: Dual specificity mitogen-activated protein kinase kinase 6 (Homo sapiens) (UniProt P52564); conditions: Compound concentration 1000.0 nM
[24] = target: 5-hydroxytryptamine receptor 3A (Homo sapiens) (UniProt P46098); conditions: Compound concentration 10.0 uM
[25] = target: Tyrosine-protein kinase HCK (Homo sapiens) (UniProt P08631); conditions: Compound concentration 1000.0 nM
[26] = target: RAF proto-oncogene serine/threonine-protein kinase (Homo sapiens) (UniProt P04049); conditions: Compound concentration 1000.0 nM
Chain of RAF proto-oncogene serine/threonine-protein kinase (Homo sapiens) (P04049 whole entry): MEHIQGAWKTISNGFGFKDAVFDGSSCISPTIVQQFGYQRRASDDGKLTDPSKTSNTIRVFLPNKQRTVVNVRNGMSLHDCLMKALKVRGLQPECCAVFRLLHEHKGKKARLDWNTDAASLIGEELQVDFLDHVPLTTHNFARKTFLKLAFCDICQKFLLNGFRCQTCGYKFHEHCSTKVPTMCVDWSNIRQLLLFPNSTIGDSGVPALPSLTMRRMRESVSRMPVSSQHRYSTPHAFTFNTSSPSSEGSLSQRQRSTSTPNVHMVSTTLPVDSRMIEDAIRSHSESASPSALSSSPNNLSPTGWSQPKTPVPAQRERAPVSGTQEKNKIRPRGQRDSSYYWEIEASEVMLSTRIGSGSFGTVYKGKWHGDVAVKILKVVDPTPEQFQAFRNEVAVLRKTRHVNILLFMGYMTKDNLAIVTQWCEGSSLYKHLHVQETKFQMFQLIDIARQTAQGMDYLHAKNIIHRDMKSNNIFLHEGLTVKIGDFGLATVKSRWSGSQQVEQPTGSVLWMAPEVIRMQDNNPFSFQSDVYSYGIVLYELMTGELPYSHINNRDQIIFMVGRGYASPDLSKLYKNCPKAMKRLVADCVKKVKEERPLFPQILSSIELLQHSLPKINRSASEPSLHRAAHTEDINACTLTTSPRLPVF

[27] = target: Protein kinase C theta type (Homo sapiens) (UniProt Q04759); conditions: Compound concentration 1000.0 nM
[28] = target: Maternal embryonic leucine zipper kinase (Homo sapiens) (UniProt Q14680); conditions: Compound concentration 1000.0 nM
Chain of Maternal embryonic leucine zipper kinase (Homo sapiens) (Q14680 whole entry, looked up): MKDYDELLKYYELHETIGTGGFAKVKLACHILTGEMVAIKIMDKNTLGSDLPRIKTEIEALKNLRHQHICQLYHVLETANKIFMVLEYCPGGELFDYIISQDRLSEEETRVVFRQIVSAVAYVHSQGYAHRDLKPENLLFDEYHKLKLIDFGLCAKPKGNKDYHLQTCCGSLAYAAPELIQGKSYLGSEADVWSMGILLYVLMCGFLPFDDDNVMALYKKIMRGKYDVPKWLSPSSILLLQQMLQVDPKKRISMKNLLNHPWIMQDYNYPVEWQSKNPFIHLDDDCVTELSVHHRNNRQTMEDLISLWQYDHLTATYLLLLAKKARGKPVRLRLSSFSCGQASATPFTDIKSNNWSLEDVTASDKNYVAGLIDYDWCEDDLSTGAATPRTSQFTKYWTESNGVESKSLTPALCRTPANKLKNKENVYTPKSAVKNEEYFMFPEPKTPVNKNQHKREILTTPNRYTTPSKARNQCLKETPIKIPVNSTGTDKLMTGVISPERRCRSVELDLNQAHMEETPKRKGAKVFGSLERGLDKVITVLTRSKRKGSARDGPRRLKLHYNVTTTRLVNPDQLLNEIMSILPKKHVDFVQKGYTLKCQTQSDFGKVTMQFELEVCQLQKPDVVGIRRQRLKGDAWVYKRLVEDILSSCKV

[29] = target: Receptor-interacting serine/threonine-protein kinase 2 (Homo sapiens) (UniProt O43353); conditions: Compound concentration 1000.0 nM
Chain of Receptor-interacting serine/threonine-protein kinase 2 (Homo sapiens) (O43353 whole entry): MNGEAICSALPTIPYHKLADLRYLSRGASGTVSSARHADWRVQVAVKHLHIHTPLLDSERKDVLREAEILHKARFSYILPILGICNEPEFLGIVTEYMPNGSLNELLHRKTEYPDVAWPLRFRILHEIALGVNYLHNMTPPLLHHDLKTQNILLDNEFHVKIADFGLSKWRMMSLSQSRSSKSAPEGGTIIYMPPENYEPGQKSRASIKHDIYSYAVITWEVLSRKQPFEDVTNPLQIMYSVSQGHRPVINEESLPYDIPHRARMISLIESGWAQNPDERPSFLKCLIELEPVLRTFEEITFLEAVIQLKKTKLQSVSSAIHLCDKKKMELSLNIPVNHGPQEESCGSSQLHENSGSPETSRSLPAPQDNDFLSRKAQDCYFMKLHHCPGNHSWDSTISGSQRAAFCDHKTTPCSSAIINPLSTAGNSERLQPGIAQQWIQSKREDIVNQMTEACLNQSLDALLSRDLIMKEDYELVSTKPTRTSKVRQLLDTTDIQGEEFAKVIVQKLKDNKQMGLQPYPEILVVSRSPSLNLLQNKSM

[30] = target: Serine/threonine-protein kinase pim-3 (Homo sapiens) (UniProt Q86V86); conditions: Compound concentration 1000.0 nM
[31] = target: Macrophage-stimulating protein receptor (Homo sapiens) (UniProt Q04912); conditions: Compound concentration 1000.0 nM
[32] = target: Alpha-1D adrenergic receptor (Homo sapiens) (UniProt P25100); conditions: Compound concentration 10.0 uM
Chain of Alpha-1D adrenergic receptor (Homo sapiens) (P25100 whole entry): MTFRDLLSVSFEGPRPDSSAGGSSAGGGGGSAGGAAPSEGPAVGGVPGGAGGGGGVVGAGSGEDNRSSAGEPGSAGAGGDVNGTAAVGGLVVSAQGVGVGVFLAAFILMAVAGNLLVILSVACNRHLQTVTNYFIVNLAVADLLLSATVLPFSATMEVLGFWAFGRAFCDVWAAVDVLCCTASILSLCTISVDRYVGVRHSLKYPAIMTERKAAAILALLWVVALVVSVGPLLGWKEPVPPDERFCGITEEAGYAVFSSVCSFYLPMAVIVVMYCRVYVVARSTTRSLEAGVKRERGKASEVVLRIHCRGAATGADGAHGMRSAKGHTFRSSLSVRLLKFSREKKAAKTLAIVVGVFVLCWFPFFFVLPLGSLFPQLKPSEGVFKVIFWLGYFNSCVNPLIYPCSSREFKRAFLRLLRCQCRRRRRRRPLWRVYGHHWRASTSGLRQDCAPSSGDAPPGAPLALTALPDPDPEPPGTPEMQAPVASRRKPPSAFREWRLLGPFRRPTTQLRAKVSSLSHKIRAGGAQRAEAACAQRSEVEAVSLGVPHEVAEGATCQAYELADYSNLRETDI

[33] = target: Mitogen-activated protein kinase kinase kinase 4 (Homo sapiens) (UniProt Q9Y6R4); conditions: Compound concentration 1000.0 nM
[34] = system: Proto-oncogene tyrosine-protein kinase receptor Ret (Homo sapiens), P07949 [V804M]; conditions: Compound concentration 1000.0 nM
[35] = target: Dual serine/threonine and tyrosine protein kinase (Homo sapiens) (UniProt Q6XUX3); conditions: Compound concentration 1000.0 nM
[36] = target: Cyclin-dependent kinase 3 (Homo sapiens) (UniProt Q00526); conditions: Compound concentration 1000.0 nM
[37] = target: Cyclin-dependent kinase 19 (Homo sapiens) (UniProt Q9BWU1); conditions: Compound concentration 1000.0 nM
[38] = target: Phosphatidylinositol 4-phosphate 5-kinase type-1 gamma (Homo sapiens) (UniProt O60331); conditions: Compound concentration 1000.0 nM
[39] = target: Serine/threonine-protein kinase STK11 (Homo sapiens) (UniProt Q15831); conditions: Compound concentration 1000.0 nM
[40] = target: Death-associated protein kinase 1 (Homo sapiens) (UniProt P53355); conditions: Compound concentration 1000.0 nM
[41] = system: Phosphatidylinositol 4,5-bisphosphate 3-kinase catalytic subunit alpha isoform (Homo sapiens), P42336 [C420R]; conditions: Compound concentration 1000.0 nM
[42] = target: Ribosomal protein S6 kinase alpha-6 (Homo sapiens) (UniProt Q9UK32); conditions: Compound concentration 1000.0 nM
[43] = system: Receptor-type tyrosine-protein kinase FLT3 (Homo sapiens), P36888 [UNDEFINED MUTATION]; conditions: Compound concentration 1000.0 nM
[44] = target: 3-phosphoinositide-dependent protein kinase 1 (Homo sapiens) (UniProt O15530); conditions: Compound concentration 1000.0 nM
[45] = target: Homeodomain-interacting protein kinase 1 (Homo sapiens) (UniProt Q86Z02); conditions: Compound concentration 1000.0 nM
Chain of Homeodomain-interacting protein kinase 1 (Homo sapiens) (Q86Z02 whole entry, looked up): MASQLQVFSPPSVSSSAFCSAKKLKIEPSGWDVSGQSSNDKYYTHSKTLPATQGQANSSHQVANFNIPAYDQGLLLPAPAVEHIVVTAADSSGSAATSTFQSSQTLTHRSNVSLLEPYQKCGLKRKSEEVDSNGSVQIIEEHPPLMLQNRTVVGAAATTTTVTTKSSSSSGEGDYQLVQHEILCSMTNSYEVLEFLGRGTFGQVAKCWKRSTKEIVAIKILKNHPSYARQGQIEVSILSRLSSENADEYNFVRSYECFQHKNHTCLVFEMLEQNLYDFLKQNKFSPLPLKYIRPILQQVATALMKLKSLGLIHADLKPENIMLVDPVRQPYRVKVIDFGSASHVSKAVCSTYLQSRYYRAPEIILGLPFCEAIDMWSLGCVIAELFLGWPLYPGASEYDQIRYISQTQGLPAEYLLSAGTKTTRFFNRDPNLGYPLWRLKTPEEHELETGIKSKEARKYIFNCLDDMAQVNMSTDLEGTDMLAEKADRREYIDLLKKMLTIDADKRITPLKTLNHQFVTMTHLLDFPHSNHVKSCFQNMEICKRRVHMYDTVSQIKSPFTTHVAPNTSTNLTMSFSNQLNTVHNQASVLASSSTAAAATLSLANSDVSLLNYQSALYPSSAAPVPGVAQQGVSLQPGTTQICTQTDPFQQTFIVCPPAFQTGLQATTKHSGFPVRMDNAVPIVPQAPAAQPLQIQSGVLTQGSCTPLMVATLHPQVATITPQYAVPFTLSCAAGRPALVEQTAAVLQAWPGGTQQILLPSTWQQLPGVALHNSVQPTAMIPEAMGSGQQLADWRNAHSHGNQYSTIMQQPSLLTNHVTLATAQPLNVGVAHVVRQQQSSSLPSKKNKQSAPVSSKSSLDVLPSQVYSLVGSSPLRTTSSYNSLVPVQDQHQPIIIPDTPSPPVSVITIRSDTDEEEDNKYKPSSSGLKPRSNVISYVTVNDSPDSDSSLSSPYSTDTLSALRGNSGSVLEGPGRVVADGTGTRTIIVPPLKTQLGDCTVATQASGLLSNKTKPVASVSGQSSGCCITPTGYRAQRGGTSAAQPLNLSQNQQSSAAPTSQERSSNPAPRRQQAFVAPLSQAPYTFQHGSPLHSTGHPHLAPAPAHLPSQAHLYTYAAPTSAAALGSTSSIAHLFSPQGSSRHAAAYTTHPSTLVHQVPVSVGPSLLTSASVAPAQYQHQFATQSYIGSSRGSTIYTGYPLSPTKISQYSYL

Nc1cnc(N2CCc3cc(S(=O)(=O)Nc4c(F)cc(Cl)cc4F)cc(N4CCCC4=O)c32)nc1
inactive: residual activity [1] 97% | residual activity [2] 100% | residual activity [3] 100% | residual activity [4] 93% | residual activity [5] 100% | residual activity [6] 92% | residual activity [7] 88% | residual activity [8] 93% | residual activity [9] 100% | residual activity [10] 100% | residual activity [11] 100% | inhibition [12] -5.02% | residual activity [13] 91% | inhibition [14] -1.31% | residual activity [15] 100% | residual activity [16] 85% | residual activity [17] 100% | inhibition [18] 14.9% | residual activity [19] 100% | residual activity [20] 72% | residual activity [21] 83% | residual activity [22] 89% | residual activity [23] 71% | inhibition [24] 0.32% | residual activity [25] 100% | residual activity [26] 79% | residual activity [27] 89% | residual activity [28] 90% | residual activity [29] 53% | residual activity [30] 98% | residual activity [31] 98% | inhibition [32] -2.31% | residual activity [33] 85% | residual activity [34] 100% | residual activity [35] 100% | residual activity [36] 100% | residual activity [37] 100% | residual activity [38] 75% | residual activity [39] 100% | residual activity [40] 100% | residual activity [41] 84% | residual activity [42] 86% | residual activity [43] 100% | residual activity [44] 98% | residual activity [45] 91%

Cn1nc(C(F)(F)F)cc1-c1cnc(N2CCc3cc(S(=O)(=O)Nc4c(F)cc(Cl)cc4F)cc(N4CCCC4=O)c32)nc1 [TP-020]
inactive: residual activity [1] 100% | residual activity [2] 100% | residual activity [3] 100% | residual activity [4] 99% | residual activity [5] 100% | residual activity [6] 81% | residual activity [7] 94% | residual activity [8] 84% | residual activity [9] 91% | residual activity [10] 100% | residual activity [11] 91% | inhibition [12] 9.09% | residual activity [13] 94% | inhibition [14] 9.44% | residual activity [15] 96% | residual activity [16] 100% | residual activity [17] 93% | inhibition [18] 14.6% | residual activity [19] 90% | residual activity [20] 85% | residual activity [21] 97% | residual activity [22] 86% | residual activity [23] 100% | inhibition [24] 7.45% | residual activity [25] 95% | residual activity [26] 100% | residual activity [27] 100% | residual activity [28] 100% | residual activity [29] 82% | residual activity [30] 100% | residual activity [31] 100% | inhibition [32] -4.04% | residual activity [33] 100% | residual activity [34] 98% | residual activity [35] 83% | residual activity [36] 91% | residual activity [37] 100% | residual activity [38] 93% | residual activity [39] 100% | residual activity [40] 96% | residual activity [41] 76% | residual activity [42] 85% | residual activity [43] 82% | residual activity [44] 100% | residual activity [45] 87%
